Data as given in article PMC2764847, “Dual Localized AtHscB Involved in Iron Sulfur Protein Biogenesis in Arabidopsis” (PLoS ONE, 2009).

Target: T1, AtHscA1 (Arabidopsis thaliana, UniProt Q8GUM2)
T1 construct: gene HSP70-9
T1 sequence (Q8GUM2 47-682): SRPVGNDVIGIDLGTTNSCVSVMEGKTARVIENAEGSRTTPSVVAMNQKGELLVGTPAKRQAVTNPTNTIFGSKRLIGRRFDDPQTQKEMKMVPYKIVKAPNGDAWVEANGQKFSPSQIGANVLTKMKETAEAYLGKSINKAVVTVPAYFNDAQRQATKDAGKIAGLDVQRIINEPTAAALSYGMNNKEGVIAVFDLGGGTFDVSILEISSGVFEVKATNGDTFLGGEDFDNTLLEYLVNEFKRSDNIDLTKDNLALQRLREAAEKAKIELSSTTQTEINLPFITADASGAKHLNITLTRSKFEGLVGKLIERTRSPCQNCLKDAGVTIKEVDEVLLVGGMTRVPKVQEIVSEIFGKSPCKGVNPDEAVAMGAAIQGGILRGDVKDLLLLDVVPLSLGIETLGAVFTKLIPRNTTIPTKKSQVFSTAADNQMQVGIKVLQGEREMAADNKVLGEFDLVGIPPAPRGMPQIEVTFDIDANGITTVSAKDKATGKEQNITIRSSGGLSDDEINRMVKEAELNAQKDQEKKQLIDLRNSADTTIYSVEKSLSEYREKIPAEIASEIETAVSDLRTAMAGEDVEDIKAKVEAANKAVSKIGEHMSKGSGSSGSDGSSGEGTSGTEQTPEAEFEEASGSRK
Experiment: ATPase assay, [gamma-32P]ATP hydrolysis, TLC and phosphorimager
Assay type: biochemical
Conditions: 50 mM Tris-HCl pH 7.4, 50 mM NaCl, 10 mM KCl, 0.1 mM EDTA, 1.5 mM DTT; 2 µM protein; no co-chaperone; labelled compound

Km: 49.5 µM
SMILES: Nc1ncnc2c1ncn2[C@@H]1O[C@H](COP(=O)(O)OP(=O)(O)OP(=O)(O)O)[C@@H](O)[C@H]1O [ATP]
